Values of other authors in patent US7557115B2, “Compounds, compositions, and methods” (Cytokinetics, Inc., priority 2002, dated 2009).

System: A549 cells
Details: concentration that decreases rate of cell growth by fifty percent

| GI50 | Structure (SMILES) |
| --- | --- |
| 1000 nM | O=c1[nH]cc(F)c(=O)[nH]1 [5-fluorouracil] |
| 63 nM | COc1cccc2c1C(=O)c1c(O)c3c(c(O)c1C2=O)C[C@@](O)(C(=O)CO)C[C@@H]3O[C@H]1C[C@H](N)[C@H](O)[C@H](C)O1 [doxorubicin] |
| 500000 nM | NC(=O)NO [hydroxyurea] |
| 4 nM | CC(=O)O[C@H]1C(=O)[C@@]2(C)[C@H]([C@H](OC(=O)c3ccccc3)[C@]3(O)C[C@H](OC(=O)[C@H](O)[C@@H](NC(=O)c4ccccc4)c4ccccc4)C(C)=C1C3(C)C)[C@]1(OC(C)=O)CO[C@@H]1C[C@@H]2O [paclitaxel] |
